Source: US8334299B2, “β-carboline for the treatment of neurodegenerative diseases” (Ellneuroxx, Ltd., priority 2007, dated 2012)

What was measured:
[1] = system: undifferentiated multipotent neuronal precursor cells from the midbrain of mouse embryos; assay: Differentiation of multipotent neuronal precursor cells with compound in culture medium; format: cell-based; conditions: 50 μM final concentration once per week
Description: To verify if 9-methyl-β-carboline increases the efficiency of culture media for the experiments with neurons and for tissue engineering, pilot experiments were carried out by way of example with undifferentiated multipotent neuronal precursor cells from the midbrain of mouse embryos (embryonic day 14). By suitable cultivation procedures a cell suspension was produced which was kept for four weeks in a medium that contained, inter alia, growth factors from fibroblasts and the skin (epidermal growth factor). After this time the neuronal precursor cells were differentiated in a medium to promote the maturation of neurons. After a week, about 40% of the cells could be stained by a neuronal marker (β-tubulin, type III). Most other cells were glial cells. A small percentage of the neurons could be colored additionally with the antibody for tyrosin hydroxylase (˜3%). This means that about three percent of the neurons were from the dopaminergic cell type. The enzyme tyrosin hydroxylase can only be found in the midbrain in dopaminergic neurons.
Under corresponding conditions 9-methyl-β-carboline (50 μM final concentration) were added to the culture medium once per week, also once to the differentiation medium. […]

[2] = system: midbrain cells in culture; assay: Dead (necrotic) cells by propidium iodide staining of cell nuclei; format: cell-based, mice; conditions: 48 hours, 50 μM; control about 20%
Description: FIG. 4b Percentage of dead (necrotic) cells after incubation with 50 μM 9-methyl-β-carboline for 48 hours 10 DIV-12 DIV.
Dying cells release the enzyme lactate dehydrogenase (LDH) into the medium. Since cells always die in culture always a small LDH concentration can be detected in the medium as an indirect measure for the vitality of the culture. Compared to control conditions the LDH concentration decreased after incubation with 9-methyl-β-carboline in a dose-dependent manner with a concentration up to 50 μM (FIG. 4a). The number of dead cells can be quantified by staining the cell nuclei with propidium iodide.

[3] = system: glial cell line-derived neurotrophic factor (GDNF); assay: PCR superarray of RNA from the striata of MPP+ rats: GDNF; format: in vivo, rat
Source text: (§1) To investigate Parkinson's disease acute in vivo models are used for years although chronic models would be a better model for the disease. Another disadvantage of the acute models is that ca. 40% of the animals die from the application of the neurotoxin. Therefore, we have chosen a chronic model in which comparably very low doses of neurotoxin 1-methyl-4-phenylpyridinium (MPP^+) were infused for 28 days into the left lateral ventricle of the rat brain. The substance was continuously applied through osmotic minipumps. Thereby, casualties were completely avoided. After four weeks, either solvent or equimolar amounts of the sample substance, namely neuroprotective betacarboline, resp. 9-alkyl-betacarboline was infused for two weeks via the same catheter. In a preliminary study for dose-finding the MPP^+ dose which leads to a reduction by 40% of the dopamine concentration in the striatum was determined. The dopamine concentration in the striatum is a characteristic marker for Parkinson's disease in which a degeneration of dopaminergic neurons occurs.
(§2) An explanation for the effect of the betacarboline was found in the tests of the RNA from the striata of these rats through the PCR superarray method. Accordingly, the betacarboline activates the generation of neurotrophins, thus proteins produced naturally in the body, which are responsible for the growth and differentiation of neurons. […]

[4] = system: Sonic Hedgehog, Wnt 1, Wnt 5a, engrailed 1, Nurr 1, Pitx 3, Aldh1a1, DAT, tyrosin hydroxylase; assay: Real-time-RT-PCR of neurotrophic transcription factors and dopamine markers in midbrain cultures; format: cell-based, mice; conditions: 50 μM, 48 hours and 48 hours after removal
Description: FIG. 7 Evidence of gene expression of neurotrophic transcription factors and dopamine markers with real-time-RT-PCR after incubation with 50 μM 9-methyl-β-carboline for 48 hours 10 DIV-12 DIV.
For this purpose, real-time-RT-PCR experiments were carried out. In this quantitative method the transcription of selected genes is measured. We selected genes which are enhanced under proliferation and differentiation conditions and such that are of importance for the formation, stability and degradation of dopaminergic neurons. The analyses were conducted in midbrain cultures after exposition to 50 μM 9-methyl-β-carboline for 48 hours and 48 hours after removal of 9-methyl-β-carboline. Control cultures were kept simultaneously under the same conditions. […] Moreover, factors were increased which are activated during the formation of dopaminergic precursor cells (progenitor cells) (Aldh1a1), the dopamine transporter (DAT) and tyrosin hydroxylase.

[5] = system: brain-derived neurotrophic factor (BDNF); assay: PCR superarray of RNA from the striata of MPP+ rats: BDNF; format: in vivo, rat
Source text: as §1, §2

Cn1c2ccccc2c2ccncc21 [9-methyl-β-carboline]
increase of percentage of dopaminergic cells [1]: 25% | increase of amount of neurons compared to control conditions ([1]; 3 independent experiments): 15% | cells in culture that died [2]: about 10% | concentration of GDNF ([3]; left striatum): did not increase | increase of GDNF by factor ([3]; right striatum): 12 | transcription of Aldh1a1, dopamine transporter (DAT) and tyrosin hydroxylase [4]: increased | transcription of Sonic Hedgehog, Wnt 1, Wnt 5a, engrailed 1, Nurr 1 and Pitx 3 [4]: activated | increase of BDNF compared to rats infused solvent only for six weeks ([5]; left striatum): 4.9 times | increase of BDNF compared to rats infused solvent only for six weeks ([5]; right striatum): 8.5 times
